Reference: patent US7429599B2, “Methods for treating or preventing an inflammatory or metabolic condition or inhibiting JNK” (Signal Pharmaceuticals, LLC, priority 2000, dated 2008)
pIC50: −log10 of the molar value. Structures can show the parent of a compound that is named as a salt. Where two headings read alike, the source gives them in different places.

Target: T1, His6-JNK2 (Homo sapiens, UniProt P45984)
T1 construct: His6 (N)
Test: JNK2 Assay (c-Jun phosphorylation, 32P-ATP filter plate)
Assay type: biochemical
Conditions: c-Jun phosphorylation reduced to 50% of control, GST-c-Jun(1-79), 11 μM ATP
Description: To 10 μL of the test compound in 20%/DMSO/80% dilutien buffer consisting of 20 mM HELPS (pH 7.6), 0.1 mM; EDTA, 2.5 mM magnesium chloride, 0.004% Triton×100, 2 μg/mL leupeptin, 20 mM β-glycerolphosphate, 0.1 mM sodium vanadate, and 2 mM DTT in water is added 30 μL of 50 ng His6-JNK2 in the same dilution buffer. The mixture is preincubated for 30 minutes at room temperature. Sixty microliter of 10 μg GST-c-Jun(1-79) in assay buffer consisting of 20 mM HEPES (pH 7.6), 50 mM sodium chloride, 0.1 mM EDTA, 24 mM magnesium chloride, 1 mM DTT, 25 mM PNPP, 0.05% Triton×100, 11 μM ATP, and 0.5 μCi γ-^32P ATP in water is added and the reaction is allowed to proceed for 1 hour at room temperature. The c-Jun phosphorylation is terminated by addition of 150 μL of 12.5% trichloroacetic acid. After 30 minutes, the precipitate is harvested onto a filter plate, diluted with 50 μL of the scintillation fluid and quantified by a counter. The IC50 values are calculated as the concentration of the test compound at which the c-Jun phosphorylation is reduced to 50% of the control value.

[1] = read-out: IC50 value in the JNK2 Assay

T1 sequence (P45984 whole entry): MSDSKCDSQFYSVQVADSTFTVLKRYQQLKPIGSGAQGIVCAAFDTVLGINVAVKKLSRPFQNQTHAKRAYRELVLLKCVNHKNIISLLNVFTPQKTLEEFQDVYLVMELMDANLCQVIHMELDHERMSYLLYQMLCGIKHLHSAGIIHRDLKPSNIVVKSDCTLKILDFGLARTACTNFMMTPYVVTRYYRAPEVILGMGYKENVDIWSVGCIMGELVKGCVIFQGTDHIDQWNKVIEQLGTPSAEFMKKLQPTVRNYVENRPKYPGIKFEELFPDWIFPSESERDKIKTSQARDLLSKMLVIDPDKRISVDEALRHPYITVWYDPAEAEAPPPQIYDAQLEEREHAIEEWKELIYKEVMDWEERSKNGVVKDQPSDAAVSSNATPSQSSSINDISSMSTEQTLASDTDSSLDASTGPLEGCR

Structure (SMILES)	pIC50 [1]	pIC50 (IC50 value in the JNK2 Assay)
CC(=O)c1ccc(N2CCN(C(=O)c3ccc(Nc4nccc(-c5ccc(Cl)cc5)n4)cc3)CC2)cc1 [Compound 17-134]	≥ 5.00	–
COc1ccccc1N1CCN(C(=O)c2ccc(Nc3nccc(-c4ccc(Cl)cc4)n3)cc2)CC1 [Compound 17-135]	≥ 5.00	–
O=C(c1ccc(Nc2nccc(-c3ccc(Cl)cc3)n2)cc1)N1CCN(c2ccc([N+](=O)[O-])cc2)CC1 [Compound 17-136]	≥ 5.00	–
CCOC(=O)N1CCN(C(=O)c2ccc(Nc3nccc(-c4ccc(Cl)cc4)n3)cc2)CC1 [Compound 17-137]	≥ 6.00	–
O=C(c1ccc(Nc2nccc(-c3ccc(Cl)cc3)n2)cc1)N1CCC2(CC1)OCCO2 [Compound 17-139]	–	≥ 5.00
O=C(c1ccc(Nc2nccc(-c3ccc(Cl)cc3)n2)cc1)N1CCC(c2ccccc2)CC1 [Compound 17-140]	≥ 5.00	–
CC(C)NC(=O)CN1CCN(C(=O)c2ccc(Nc3nccc(-c4ccc(Cl)cc4)n3)cc2)CC1 [Compound 17-141]	≥ 6.00	–
O=C(NCCN1CCOCC1)c1ccc(Nc2nccc(-c3ccc(Cl)cc3)n2)cc1 [Compound 17-142]	≥ 5.00	–
O=C(c1ccc(Nc2nccc(-c3ccc(Cl)cc3)n2)cc1)N1CCN(c2cccc(C(F)(F)F)c2)CC1 [Compound 17-143]	≥ 5.00	–
O=C(c1ccc(Nc2nccc(-c3ccc(Cl)cc3)n2)cc1)N1CC=CCC1 [Compound 17-144]	≥ 5.00	–
CCN(Cc1ccncc1)C(=O)c1ccc(Nc2nccc(-c3ccc(Cl)cc3)n2)cc1 [Compound 17-147]	≥ 6.00	–
O=C(c1ccc(Nc2nccc(-c3ccc(Cl)cc3)n2)cc1)N1CCN(c2ccccn2)CC1 [Compound 17-148]	≥ 5.00	–
O=C(c1ccc(Nc2nccc(-c3ccc(Cl)cc3)n2)cc1)N1CCN(c2ccc(F)cc2)CC1 [Compound 17-149]	≥ 5.00	–
CN(C)CCN(Cc1ccccc1)C(=O)c1ccc(Nc2nccc(-c3ccc(Cl)cc3)n2)cc1 [Compound 17-150]	≥ 5.00	–
CN(CCc1ccccn1)C(=O)c1ccc(Nc2nccc(-c3ccc(Cl)cc3)n2)cc1 [Compound 17-151]	≥ 5.00	–
CN1CCCC1CCNC(=O)c1ccc(Nc2nccc(-c3ccc(Cl)cc3)n2)cc1 (stereo not drawn) [Compound 17-152]	≥ 5.00	–
CCN(CC)CCCNC(=O)c1ccc(Nc2nccc(-c3ccc(Cl)cc3)n2)cc1 [Compound 17-153]	≥ 5.00	–
CN(C)CCCNC(=O)c1ccc(Nc2nccc(-c3ccc(Cl)cc3)n2)cc1 [Compound 17-154]	≥ 6.00	–
CN(Cc1ccccc1)C(=O)c1ccc(Nc2nccc(-c3ccc(Cl)cc3)n2)cc1 [Compound 17-157]	≥ 5.00	–
O=C(c1ccc(Nc2nccc(-c3ccc(Cl)cc3)n2)cc1)N1CCN(c2ccccc2)CC1 [Compound 17-158]	≥ 5.00	–

Structure (SMILES)	pIC50 [1]	pIC50 (IC50 value in the JNK2 Assay)
O=C(c1ccc(Nc2nccc(-c3ccc(Cl)cc3)n2)cc1)N1CCN(C(=O)c2ccco2)CC1 [Compound 17-159]	≥ 5.00	–
CC(=O)N1CCCN(C(=O)c2ccc(Nc3nccc(-c4ccc(Cl)cc4)n3)cc2)CC1 [Compound 17-160]	≥ 5.00	–
O=C(c1ccc(Nc2nccc(-c3ccc(Cl)cc3)n2)cc1)N1CCN(Cc2cccnc2)CC1 [Compound 17-161]	≥ 5.00	–
CCN(C(C)=O)C1CCN(C(=O)c2ccc(Nc3nccc(-c4ccc(Cl)cc4)n3)cc2)C1 (stereo not drawn) [Compound 17-162]	≥ 5.00	–
CC(=O)N(C)C1CCN(C(=O)c2ccc(Nc3nccc(-c4ccc(Cl)cc4)n3)cc2)C1 (stereo not drawn) [Compound 17-163]	≥ 5.00	–
CN1CCN(CCCNC(=O)c2ccc(Nc3nccc(-c4ccc(Cl)cc4)n3)cc2)CC1 [Compound 17-164]	≥ 5.00	–
O=C(c1ccc(Nc2nccc(-c3ccc(Cl)cc3)n2)cc1)N1CCC(N2CCCCC2)CC1 [Compound 17-169]	≥ 6.00	–
O=C(c1ccc(Nc2nccc(-c3ccc(Cl)cc3)n2)cc1)N1CCC(N2CCCC2)CC1 [Compound 17-171]	≥ 6.00	–
C[C@@H]1CN(C(=O)c2ccc(Nc3nccc(-c4ccc(Cl)cc4)n3)cc2)C[C@H](C)N1 [Compound 17-190]	≥ 6.00	–
O=C(c1ccc(Nc2nccc(-c3ccc(Cl)cc3)n2)cc1)N1CCN(CCO)CC1 [Compound 17-215]	≥ 5.00	–
O=C(c1ccc(Nc2nccc(-c3ccc(Cl)cc3)n2)cc1)N1CCNCC1 [Compound 18, 4-{[4-(4-Chlorophenyl)pyrimidin-2-yl]amino}benzoic acid piperazine amide hydrochloride]	≥ 6.00	–
CC(=O)NC1CCN(C(=O)c2ccc(Nc3nccc(-c4ccc(Cl)cc4)n3)cc2)CC1 [Compound 20-1]	≥ 6.00	–
Cc1noc(C)c1C(=O)NC1CCN(C(=O)c2ccc(Nc3nccc(-c4ccc(Cl)cc4)n3)cc2)CC1 [Compound 20-2]	≥ 5.00	–
O=C(NC1CCN(C(=O)c2ccc(Nc3nccc(-c4ccc(Cl)cc4)n3)cc2)CC1)c1cccs1 [Compound 20-3]	≥ 6.00	–
O=C(NC1CCN(C(=O)c2ccc(Nc3nccc(-c4ccc(Cl)cc4)n3)cc2)CC1)N1CCOCC1 [Compound 20-4]	≥ 6.00	–
CN(C)C(=O)NC1CCN(C(=O)c2ccc(Nc3nccc(-c4ccc(Cl)cc4)n3)cc2)CC1 [Compound 20-5]	≥ 5.00	–
COCC(=O)NC1CCN(C(=O)c2ccc(Nc3nccc(-c4ccc(Cl)cc4)n3)cc2)CC1 [Compound 20-6]	≥ 5.00	–
CN(C)CCNC1CCN(C(=O)c2ccc(Nc3nccc(-c4ccc(Cl)cc4)n3)cc2)CC1 [Compound 22-10]	≥ 6.00	–
O=C(c1ccc(Nc2nccc(-c3ccc(Cl)cc3)n2)cc1)N1CCC(NCCO)CC1 [Compound 22-11]	≥ 6.00	–
